According to PubChem BioAssay AID179 (DTP/NCI, 2004):
Several values for one entry are separate records, joined by “and”; a condition that tells them apart may be missing. Equal values may be shown once. Activity calls are given as the source filed them.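 How the source made its calls: active means compounds giving half or more protection of infected cells from virus-caused growth loss, again on retest; inactive means the rest.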

Tested on: CEM cells HIV-1 protection, formazan growth assay
Assay: NCI AIDS Antiviral Assay
Conditions: for IC50: measured here: growth of uninfected CEM cells
In short: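 Protection of CEM cells against HIV-1 was scored from cell growth (soluble formazan) across five concentrations, with parallel uninfected cells. Lack of protection may reflect toxicity.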

| Structure (SMILES) | EC50 | IC50 | outcome |
| --- | --- | --- | --- |
| COC(=O)c1ccc(/C=C/C2=CC(=O)C=CC2=O)cc1 | > 200 µM | 2.09 µM | – |
| O=c1c(SCc2ccccc2)c(N2CCCCC2)cnn1-c1ccccc1 | > 69.2 µM | > 69.2 µM | – |
| CN1C(=O)[C@@]2(C=CC3(CC2)OCCO3)c2ccccc21 | > 200 µM | 35.5 µM | – |
| CNCC(OB(c1ccccc1)c1ccccc1)c1ccccc1 (centres undefined) | > 200 µM | 60.3 µM | – |
| COC(=O)C1=C(C(=O)OC)NC2=C(C=N1)CCC2 | > 380 µM | > 380 µM | – |
| O=c1ccn(-c2ccccn2)c(=O)n1-c1ccccn1 | – | – | inactive |
| CC(=O)c1ccccc1NC(=O)C(=O)C(C(=O)c1ccccc1-c1ccccc1)C1OC(=O)c2ccccc21 (centres undefined) | > 50.1 µM | 26.9 µM | – |
| CCCCCCCCP(=O)(O)OP(=O)(O)OCC1OC(n2ccc(N)nc2=O)C(O)C1O (centres undefined) | > 200 µM | > 200 µM | – |
| CCOC(=O)c1sc2c(C(=O)OCC)c3cc(C)ccn3c2c1N | – | – | inactive |
| C/C(=N/OC(=O)N(C)C)c1ccc(Cl)cc1Cl | > 200 µM | 105 µM | – |
| FC(F)(F)c1ccc2c(c1)N(CCCN1CCNCC1)c1ccccc1S2 | > 34.7 µM | 21.4 µM | – |
| Cc1cccc(C)c1N1C(=O)C(=O)C(c2nc3ccccc3s2)/C(=N/NC(=O)NN)C1=O (centres undefined) | – | – | inactive |
| COC(=O)C(=O)C(C(=O)C(=O)Nc1ccc([N+](=O)[O-])cc1[N+](=O)[O-])c1nc2ccc([N+](=O)[O-])cc2[nH]c1=O (centres undefined) | > 468 µM | 141 µM | – |
| COc1ccc2c3c([nH]c2c1[N+](=O)[O-])C(C)N(C(=O)/C=C/c1ccccc1)CC3 (centres undefined) | – | – | inactive |
| O=C(O)c1cccc(S(=O)(=O)NN2C(=O)CSC2c2ccc(Cl)cc2Cl)c1 (centres undefined) | > 200 µM | 35.5 µM | – |
| CCOC(=O)/C(Cl)=C(\C)Nc1nc2c(ccc3ccccc32)s1 | > 100 µM | 49 µM | – |
| Cc1c(/C=N/NC(=S)N2CCCCC2)c(=O)n(-c2ccccc2)n1C | > 200 µM | 28.8 µM | – |

| Structure (SMILES) | EC50 | IC50 | outcome |
| --- | --- | --- | --- |
| CC(=O)[O-].O=C([N-]/N=C\c1ccsc1)c1ccncc1.[Ni+2].[OH3+].c1cnc2c(c1)ccc1cccnc12 | > 200 µM | 47.9 µM | – |
| c1cncc(C2N3CCCCC3[C@@H]3c4[nH]c5ccccc5c4CCN23)c1 (some centres undefined) | > 97.7 µM | > 97.7 µM | – |
| C=C(CC(=O)Nc1ccc(C(=O)OC)o1)C(=O)OC | > 200 µM | 3.89 µM | – |
| CC1(C)CC2CC(CC(C)(C)C2=O)C1=O | > 871 µM | > 871 µM | – |
| Cc1cccc(NP2(Nc3cccc(C)c3)=NP(Nc3cccc(C)c3)(Nc3cccc(C)c3)=NP(Nc3cccc(C)c3)(Nc3cccc(C)c3)=NP(Nc3cccc(C)c3)(Nc3cccc(C)c3)=N2)c1 | > 200 µM | > 200 µM | – |
| COP12(OC)NC(=O)OC1(C(F)(F)F)c1ccccc1O2 (centres undefined) | > 776 µM | 537 µM | – |
| c1ccc2c(c1)Sc1nccc3ccnc-2c13 | > 200 µM | 13.8 µM | – |
| CCOC(=O)C1(C(=O)OCC)CC=C(C)CC12C(=O)Nc1ccccc12 (centres undefined) | > 72.4 µM | > 72.4 µM | – |
| O=C(CCC(NC(=O)OCc1ccccc1)C(=O)OCc1ccccc1)Nc1ccc(OCc2ccccc2)cc1 (centres undefined) | > 200 µM | 126 µM | – |
| Nc1nc(Cl)cc(NCC2(CO)CC(Cc3ccccc3)C2)n1 (centres undefined) | > 20 µM | 0.174 µM | – |
| O=C1c2cc(-c3ccccc3)cnc2S(=O)(=O)N1c1ccc(Br)cc1 | > 200 µM | 16.6 µM | – |
| COc1cc(C2c3cc4c(cc3OC(NN)C2C)OCO4)cc(OC)c1OC (centres undefined) | > 200 µM | 1 µM | – |
| COP(=O)(OC)/C(=C/c1c[nH]c2ccccc12)C(=O)O | > 200 µM | > 200 µM | – |
| CN(C)CCCNC(=O)c1cc(NC(=O)c2cc(NC(=O)c3cc(NC(=O)c4ccccc4C(=O)O)cn3C)cn2C)cn1C | > 200 µM | > 200 µM | – |
| CCCNC(=O)c1nc(SC)sc1NC(=O)c1ccc([N+](=O)[O-])cc1 | > 200 µM | 191 µM | – |
| CCN(CC)c1ccc2c(-c3ccccc3C(=O)O)c3ccc(=[N+](CC)CC)cc-3oc2c1 | > 100 µM | 9.12 µM and 13.5 µM | – |
| CN(C)COC(=S)SC(=O)OCCCl | > 200 µM | > 200 µM | – |
